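48-hour exposure; five concentrations; linearly interpolated endpoints. TGI: concentration producing complete growth inhibition.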
Experiments:
Test in all cases: NCI tumour cell line growth inhibition, 48 h
MDA-MB-435 = tested on: MDA-MB-435
COLO 205 colon = tested on: COLO 205 colon
SR leukemia = tested on: SR leukemia
OVCAR-3 ovarian = tested on: OVCAR-3 ovarian
IGROV1 ovarian = tested on: IGROV1 ovarian
LOX IMVI melanoma = tested on: LOX IMVI melanoma
HS 578T breast = tested on: HS 578T breast
UACC-62 melanoma = tested on: UACC-62 melanoma
PC-3 prostate = tested on: PC-3 prostate
NCI-H23 lung = tested on: NCI-H23 lung
UACC-257 melanoma = tested on: UACC-257 melanoma
A549 NSCLC = tested on: A549 NSCLC
UO-31 renal = tested on: UO-31 renal
SNB-19 CNS = tested on: SNB-19 CNS
SK-OV-3 ovarian = tested on: SK-OV-3 ovarian
786-0 renal = tested on: 786-0 renal
T-47D breast = tested on: T-47D breast
OVCAR-5 ovarian = tested on: OVCAR-5 ovarian
SF-268 CNS = tested on: SF-268 CNS
NCI-H522 lung = tested on: NCI-H522 lung
MOLT-4 leukemia = tested on: MOLT-4 leukemia
SN12C renal = tested on: SN12C renal
SK-MEL-28 melanoma = tested on: SK-MEL-28 melanoma
SW-620 colon = tested on: SW-620 colon
TK-10 renal = tested on: TK-10 renal
CCRF-CEM leukemia = tested on: CCRF-CEM leukemia
NCI/ADR-RES ovarian = tested on: NCI/ADR-RES ovarian
BT-549 breast = tested on: BT-549 breast
SF-539 CNS = tested on: SF-539 CNS
OVCAR-4 ovarian = tested on: OVCAR-4 ovarian
HOP-92 NSCLC = tested on: HOP-92 NSCLC
SK-MEL-2 melanoma = tested on: SK-MEL-2 melanoma
SK-MEL-5 melanoma = tested on: SK-MEL-5 melanoma
HOP-62 NSCLC = tested on: HOP-62 NSCLC
NCI-H460 lung = tested on: NCI-H460 lung
NCI-H226 lung = tested on: NCI-H226 lung
CAKI-1 renal = tested on: CAKI-1 renal
HL-60(TB) leukemia = tested on: HL-60(TB) leukemia
HCC-2998 colon = tested on: HCC-2998 colon
OVCAR-8 ovarian = tested on: OVCAR-8 ovarian
HCT-116 colon = tested on: HCT-116 colon
DU-145 prostate = tested on: DU-145 prostate
SF-295 CNS = tested on: SF-295 CNS
U251 CNS = tested on: U251 CNS
MDA-MB-231 breast = tested on: MDA-MB-231 breast
K-562 leukemia = tested on: K-562 leukemia
RPMI-8226 leukemia = tested on: RPMI-8226 leukemia
KM12 colon = tested on: KM12 colon
A498 renal = tested on: A498 renal
EKVX NSCLC = tested on: EKVX NSCLC
HCT-15 colon = tested on: HCT-15 colon
MALME-3M melanoma = tested on: MALME-3M melanoma
HT29 colon = tested on: HT29 colon
MCF7 breast = tested on: MCF7 breast
ACHN renal = tested on: ACHN renal
M14 melanoma = tested on: M14 melanoma

O=C1CSC(c2cccc([N+](=O)[O-])c2)N1c1ccc(-c2ccc(-n3c(-c4ccccc4)nc4ccccc4c3=O)cc2)cc1 (stereo unspecified)
TGI (MDA-MB-435): > 100 µM
TGI (COLO 205 colon): > 100 µM
TGI (SR leukemia): > 100 µM
TGI (OVCAR-3 ovarian): > 100 µM
TGI (IGROV1 ovarian): > 100 µM
TGI (LOX IMVI melanoma): > 100 µM
TGI (HS 578T breast): > 100 µM
TGI (UACC-62 melanoma): > 100 µM
TGI (PC-3 prostate): > 100 µM
TGI (NCI-H23 lung): > 100 µM
TGI (UACC-257 melanoma): > 100 µM
TGI (A549 NSCLC): > 100 µM
TGI (UO-31 renal): > 100 µM
TGI (SNB-19 CNS): > 100 µM
TGI (SK-OV-3 ovarian): > 100 µM
TGI (786-0 renal): > 100 µM
TGI (T-47D breast): > 100 µM
TGI (OVCAR-5 ovarian): > 100 µM
TGI (SF-268 CNS): > 100 µM
TGI (NCI-H522 lung): > 100 µM
TGI (MOLT-4 leukemia): > 100 µM
TGI (SN12C renal): > 100 µM
TGI (SK-MEL-28 melanoma): > 100 µM
TGI (SW-620 colon): > 100 µM
TGI (TK-10 renal): > 100 µM
TGI (CCRF-CEM leukemia): 91.9 µM
TGI (NCI/ADR-RES ovarian): > 100 µM
TGI (BT-549 breast): 98.3 µM
TGI (SF-539 CNS): > 100 µM
TGI (OVCAR-4 ovarian): > 100 µM
TGI (HOP-92 NSCLC): > 100 µM
TGI (SK-MEL-2 melanoma): > 100 µM
TGI (SK-MEL-5 melanoma): > 100 µM
TGI (HOP-62 NSCLC): > 100 µM
TGI (NCI-H460 lung): > 100 µM
TGI (NCI-H226 lung): > 100 µM
TGI (CAKI-1 renal): > 100 µM
TGI (HL-60(TB) leukemia): > 100 µM
TGI (HCC-2998 colon): > 100 µM
TGI (OVCAR-8 ovarian): > 100 µM
TGI (HCT-116 colon): > 100 µM
TGI (DU-145 prostate): > 100 µM
TGI (SF-295 CNS): > 100 µM
TGI (U251 CNS): > 100 µM
TGI (MDA-MB-231 breast): > 100 µM
TGI (K-562 leukemia): > 100 µM
TGI (RPMI-8226 leukemia): > 100 µM
TGI (KM12 colon): 81 µM
TGI (A498 renal): > 100 µM
TGI (EKVX NSCLC): > 100 µM
TGI (HCT-15 colon): > 100 µM
TGI (MALME-3M melanoma): > 100 µM
TGI (HT29 colon): > 100 µM
TGI (MCF7 breast): 92.6 µM
TGI (ACHN renal): > 100 µM
TGI (M14 melanoma): > 100 µM

— PubChem BioAssay (NCI)
